Results as given in ChEMBL document CHEMBL3352341, “Design, synthesis and biological characterization of thiazolidin-4-one derivatives as promising inhibitors of Toxoplasma gondii” (Eur J Med Chem, 2014).
Calls of active or inactive are those of the source. Unless noted, no cut-off for these calls is given here.

Columns and labels:
[1] = Cytotoxicity against human foreskin fibroblasts after 5 days by colorimetric assay; format: cell-based; conditions: human foreskin fibroblasts (HFF cells), read-out: TD50
Toxoplasma gondii [2] = experiment: Antiparasitic activity against Toxoplasma gondii infected in human foreskin fibroblasts assessed as inhibition of replication measured as decrease in the number of tachyzoites in vacuole at 10 uM after 24 hrs by fluorescence assay; format: functional, organism-based
Toxoplasma gondii [3] = experiment: Antiparasitic activity against Toxoplasma gondii infected in human foreskin fibroblasts assessed as tachyzoite growth inhibition after 5 days by colorimetric assay; format: functional, organism-based; conditions: 120 h
Toxoplasma gondii [4] = experiment: Antiparasitic activity against Toxoplasma gondii infected in human foreskin fibroblasts assessed as inhibition of tachyzoite replication compound pretreated at 10 uM for 24 hrs before infection by fluorescence assay; format: functional, organism-based
[5] = Therapeutic index, ratio of TD50 for human foreskin fibroblasts to IC50 for Toxoplasma gondii infected in human foreskin fibroblasts; conditions: read-out: TI
Toxoplasma gondii [6] = experiment: Antiparasitic activity against Toxoplasma gondii infected in human foreskin fibroblasts assessed as inhibition of attachment compound pretreated at 10 uM for 20 mins before infection after 1 hr by fluorescence assay; format: functional, organism-based
Toxoplasma gondii [7] = experiment: Antiparasitic activity against Toxoplasma gondii infected in human foreskin fibroblasts assessed as inhibition of replication measured as recovery at 10 uM for 24 hrs followed by washout measured after 96 hrs by fluorescence assay; format: functional, organism-based
Toxoplasma gondii [8] = experiment: Antiparasitic activity against Toxoplasma gondii infected in human foreskin fibroblasts assessed as inhibition of invasion compound pretreated at 10 uM for 20 mins before infection after 1 hr by fluorescence assay; format: functional, organism-based

| SMILES | CC50 at 120 h [1] [µM] | inhibition (Toxoplasma gondii [2]) | IC50 (Toxoplasma gondii [3]) [µM] | IC90 (Toxoplasma gondii [3]) [µM] | inhibition (Toxoplasma gondii [4]) | selectivity ratio [5] | inhibition (Toxoplasma gondii [6]) | inhibition (Toxoplasma gondii [7]) | inhibition (Toxoplasma gondii [8]) |
| --- | --- | --- | --- | --- | --- | --- | --- | --- | --- |
| CC(C)=N/N=C1\NC(=O)CS1 | ≥ 320 | Active | 210 | 852 | inactive | 3 | – | – | – |
| O=C1CS/C(=N/N=C\c2cccc3ccccc23)N1 | ≥ 320 | Active | 3.9 | 31 | – | 144 | Active | inactive | Active |
| CC1CC/C(=N/N=C2\NC(=O)CS2)C1 (stereo unspecified) | ≥ 320 | Active | 24 | 154 | – | 23 | Active | – | Active |
